Columns and labels:
[1] = test system: P. falciparum stages IV–V gametocytes; test: Gametocytocidal ATP-depletion assay (gametocyte ATP bioluminescence); assay type: cell-based, Plasmodium falciparum
Outline: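 Read-out is luciferase luminescence of parasite ATP (BacTiter-Glo), standing in for viability. Double-purified mature stage IV–V gametocytes, 12,500 per well, were exposed 48 h at 37 °C in low-O2 gas; screening concentration 2 μM.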

HepG2 cells = test: HepG2 cytotoxicity assay; assay type: cell-based; details: mean
Outline: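 Luminescent read-out (CellTiter-Glo) taken 10 min after reagent addition at RT; plates and reagent pre-equilibrated 30 min at RT.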

[2] = test system: P. falciparum asexual blood stages; details: TCAMS data; ref 1 (Gamo et al., 2010); read-out: Pf Asexual blood stages XC50; cited from earlier work
[3] = test system: P. falciparum stage V female gametocytes; test: P. falciparum female gametocyte activation assay (Pf FGAA), 24 h or 48 h preincubation, Pfs25 expression readout; assay type: cell-based, Plasmodium falciparum NF54; details: mean; read-out: Gametocytes mean Pf FGAA IC50
Outline: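 Female activation, triggered by xanthurenic acid and cooling, was scored by imaging Cy3-labelled anti-Pfs25 female gametes after 24 h at 26 °C. Beforehand, purified NF54 stage V gametocytes had been incubated with compound for either 24 h or 48 h (37 °C, 3% O2). Values are pIC50 from full-curve regression.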

SMILES	IC50 [3]	Gametocytes mean ATP inhibition at 2µM (%) [1]	HepG2 cells mean TOX50 (HepG2 cells)	IC50 [2]
Fc1cc(Cl)ccc1Nc1ccnc2cc(-c3ccc(CN4CCOCC4)o3)ccc12 [TCMDC-138393]	640 nM	87.52%	5.62 µM	640 nM
CN(C)CCNCc1ccc(-c2ccc3c(Nc4ccc(Oc5ccccc5)cc4)ccnc3c2)o1 [TCMDC-138399]	1560 nM	14.30%	5.69 µM	280 nM
CN(C)CCN(C)Cc1cccc(-c2ccc3c(Nc4ccc(F)cc4Cl)ccnc3c2)c1 [TCMDC-138416]	7020 nM	39.96%	6.10 µM	110 nM
CN(C)CCN(C)Cc1ccc(-c2ccc3c(Nc4ccc(Oc5ccccn5)cc4)ccnc3c2)o1 [TCMDC-138426]	2050 nM	16.13%	5.37 µM	420 nM
COc1cc2nc(N3CCC(CCCC4CCNCC4)CC3)nc(NCc3ccccn3)c2cc1OC.O=C(O)C(F)(F)F [TCMDC-138494]	6860 nM	35.38%	18.51 µM	760 nM
CN1CCN(CCCNCc2cccc(Nc3nccc(Nc4ccc(Oc5ccccc5)cc4)n3)c2)CC1 [TCMDC-138616]	980 nM	13.07%	4.68 µM	760 nM
Cl.O=C(NCCCCN1CCC(c2ccc3c(c2O)CCCC3)CC1)c1ccc(NC(=O)c2ccc(Cl)cc2)cc1 [TCMDC-138645]	1490 nM	-0.21%	3.80 µM	240 nM
C=CCC1OC(=O)c2cc(OC)cc(OC)c21 (centres unmarked) [TCMDC-138677]	360 nM	95.50%	2.29 µM	340 nM
CCc1ccc(C2CCN(CCCCNC(=O)c3ccc(NC(=O)c4ccc(Cl)cc4)cc3)CC2)c(OCCO)c1 [TCMDC-138703]	2250 nM	-4.56%	5.37 µM	1390 nM
COc1cc2nc(N3CCC(CNC(=O)c4ccc(-c5ccc(C(F)(F)F)cc5)cc4)CC3)nc(N)c2cc1OC [TCMDC-138716]	850 nM	21.96%	4.92 µM	130 nM
COc1cc2nc(N3CCC(CNC(=O)c4ccc(-c5ccc(Cl)cc5)cc4)CC3)nc(N)c2cc1OC [TCMDC-138718]	890 nM	12.29%	4.22 µM	150 nM
COc1cc2nc(N3CCC(CNC(=O)c4ccc(-c5ccc(-c6noc(C)n6)cc5)cc4)CC3)nc(N)c2cc1OC [TCMDC-138754]	1050 nM	90.89%	4.90 µM	140 nM
COc1cc2nc(N3CCC(CNCc4ccc(-c5ccc(C(F)(F)F)cc5)cc4)CC3)nc(N)c2cc1OC [TCMDC-138757]	100 nM	99.68%	1.43 µM	90 nM
O=C(O)C(F)(F)F.O=S(=O)(c1ccccc1)n1ccc2cc(Nc3ncnc4cc(C#C[C@H]5CCCN5)sc34)ccc21 [TCMDC-138913]	1170 nM	75.13%	5.50 µM	1070 nM
CC1(C)CC(NCCCCCCCOc2ccc(OCc3ccccc3)cc2)CC(C)(C)N1.Cl [TCMDC-138958]	1230 nM	38.17%	2.75 µM	830 nM
Oc1ccc2[nH]cc(C3CCN(CCCNCc4ccc(-c5ccccc5)cc4)CC3)c2c1 [TCMDC-139047]	1440 nM	-20.32%	5.62 µM	730 nM
Cl.Nc1c2c(nc3ccc(NC(=O)CCCCCCc4ccccc4)cc13)CCCC2 [TCMDC-139056]	2380 nM	-10.66%	5.42 µM	250 nM
COC(=O)c1ccc(-c2ccc(-c3cccnc3)cc2C)cc1 [TCMDC-139074]	590 nM	88.85%	3.63 µM	660 nM
c1ccc(C23N=C(Nc4nc5ccccc5[nH]4)NC2(c2ccccc2)NC(Nc2nc4ccccc4[nH]2)=N3)cc1 (centres unmarked) [TCMDC-139082]	140 nM	65.26%	58.90 µM	280 nM
COc1cccc(C23N=C(Nc4nc5ccccc5[nH]4)NC2(c2cccc(OC)c2)NC(Nc2nc4ccccc4[nH]2)=N3)c1 (centres unmarked) [TCMDC-139087]	90 nM	64.05%	40.74 µM	160 nM

Further lines, with some results ahead:

IC50 [3]	SMILES	Gametocytes mean ATP inhibition at 2µM (%) [1]	HepG2 cells mean TOX50 (HepG2 cells)	IC50 [2]
1980 nM	O=C(NCCCCN1CCC(c2ccc3c(c2OCCN2CCCC2)CCCC3)CC1)c1ccc(-c2ccc(C(F)(F)F)cc2)cc1 [TCMDC-138768]	-10.59%	5.39 µM	450 nM
1800 nM	O=C(NC1CCN(CCN2CCC(c3c[nH]c4ccccc34)CC2)CC1)c1ccc(-c2ccc(C(F)(F)F)cc2)cc1 [TCMDC-138845]	-6.33%	4.68 µM	210 nM
1030 nM	CC(C)Cn1cc(C2CCN(CCN3CCC(CNC(=O)c4ccc(-c5ccc(C#N)cc5)cc4)CC3)CC2)c2ccccc21 [TCMDC-138849]	8.40%	4.79 µM	790 nM
880 nM	CC(C)Cn1cc(C2CCN(CCN3CCC(CNC(=O)c4ccc(-c5ccc(C(F)(F)F)cc5)cc4)CC3)CC2)c2ccccc21 [TCMDC-138852]	30.37%	4.80 µM	750 nM
1470 nM	O=C(NCC1CCN(CCN2CCC(c3cn(CCO)c4ccccc34)CC2)CC1)c1ccc(-c2ccc(C(F)(F)F)cc2)cc1 [TCMDC-138856]	5.55%	2.69 µM	440 nM
1460 nM	COc1c(C2CCN(CCN3CCC(CNC(=O)c4ccc(-c5ccc(C#N)cc5)cc4)CC3)CC2)ccc2c1CCCC2 [TCMDC-138859]	3.05%	3.43 µM	460 nM
520 nM	Cl.Clc1ccc(OCCC2CCN(CCCCCCCN3CCC(CCOc4ccc(Cl)c(Cl)c4)CC3)CC2)cc1Cl [TCMDC-138967]	95.79%	1.64 µM	620 nM
1410 nM	COc1ccc(NC(=O)c2ccc(OCCCCCCCOc3ccc(C(=O)Nc4ccc(OC)c(N5CCN(C)CC5)c4)cc3)cc2)cc1N1CCN(C)CC1.O=C(O)C(=O)O [TCMDC-139007]	-8.09%	4.43 µM	600 nM
1060 nM	COc1ccc(NC(=O)c2cccc(Br)c2)cc1N1CCN(CCCCCCCN2CCN(c3cc(NC(=O)c4cccc(Br)c4)ccc3OC)CC2)CC1.Cl [TCMDC-139020]	-4.19%	6.03 µM	180 nM

Source: article PMC5442318, “Hundreds of dual-stage antimalarial molecules discovered by a functional gametocyte screen” (Nature Communications, 2017)
